Test results: patent US10858360B2, “Tricyclic gyrase inhibitors” (priority 2011, dated 2020)
≈ marks a conversion by molar mass, not a printed value. Where two headings read alike, the source gives them in different places.

Key:
S. aureus ATCC 13709 = assay: MIC, S. aureus ATCC 13709 (Alamar Blue broth microdilution); format: cell-based; settings: for MIC: Staphylococcus aureus, ATCC13709, S. aureus
E. coli ATCC 25922 = assay: MIC, E. coli ATCC 25922; format: cell-based; settings: for MIC: Escherichia coli, ATCC25922, E. coli
[1] = Alamar Blue read after overnight incubation at 35° C.
[2] = S. aureus, Alamar Blue read after overnight incubation at 35° C.
[3] = E. coli, Alamar Blue read after overnight incubation at 35° C.

SMILES | MIC (S. aureus ATCC 13709; [1]) | MIC (E. coli ATCC 25922; [1]) | MIC Sa (S. aureus ATCC 13709; [2]) | MIC Ec (E. coli ATCC 25922; [3]) | other results
CNc1cccc2c1[nH]c1nc(Oc3cnc(N4CCOCC4)nc3)nc(N3CC4C(N)C4C3)c12 (centres unmarked) [3.26] | > 16 µg/mL | > 16 µg/mL | – | – | –
CNc1cccc2c1[nH]c1nc(Oc3cncnc3)nc(Oc3cncnc3)c12 [3.37] | 2 µg/mL (≈ 5.18 µM) | > 64 µg/mL | – | – | –
CNc1cc(F)cc2c1[nH]c1nc(Oc3cnc(C)nc3)nc(N3CCCC4(CC4N)C3)c12 (centres unmarked) [4.101] | – | – | ≤0.5 µg/mL | ≤0.5 µg/mL | –
CNc1cccc2c1[nH]c1nc(Sc3cnc4cccnc4c3)nc(N3CCC(CO)C3)c12 (centres unmarked) [1.53] | ≤ 0.5 µg/mL | 8 µg/mL (≈ 17.5 µM) | – | – | –
CNc1cccc2c1[nH]c1nc(Sc3cnc4cccnc4c3)nc(N3CCC[C@@H](N)C3)c12 [1.37] | 1 µg/mL (≈ 2.19 µM) | 4 µg/mL (≈ 8.76 µM) | – | – | –
CNc1cc(F)cc2c1[nH]c1nc(Oc3cncnc3)nc(N3CC4C(N)C4C3)c12 (centres unmarked) [4.010] | – | – | ≤0.5 µg/mL | ≤0.5 µg/mL | –
CNc1cc(F)cc2c1[nH]c1nc(Oc3cnc(CCO)nc3)nc(N3CC4C[C@@H](N)C4C3)c12 (some centres unmarked) [4.429] | – | – | ≤0.5 µg/mL | 1 µg/mL (≈ 2.15 µM) | –
CNc1cccc2c1[nH]c1nc(Sc3cnc4nccnc4c3)nc(N3CC4C(N)C4C3)c12 (centres unmarked) [1.16] | ≤ 0.5 µg/mL | 1 µg/mL (≈ 2.2 µM) | – | – | –
CNc1cc(F)cc2c1[nH]c1nc(Oc3cnc(N4CCOCC4)nc3)nc(N3CCC(N)C3)c12 (centres unmarked) [4.212] | – | – | ≤0.5 µg/mL | ≤0.5 µg/mL | –
CCOC(=O)C1CN(c2nc(Oc3cnc(C)nc3)nc3[nH]c4c(NC)cc(F)cc4c23)CC1N (centres unmarked) [4.140] | – | – | ≤0.5 µg/mL | 2 µg/mL (≈ 4.16 µM) | –
CCOC(=O)c1ncc(Oc2nc(N3CC4C[C@@H](N)C4C3)c3c(n2)[nH]c2c(NC)cc(F)cc23)cn1 (some centres unmarked) [4.401] | ≤ 0.5 µg/mL | ≤ 0.5 µg/mL | – | – | –
CNc1cc(F)cc2c1[nH]c1nc(Oc3cnc(SC)nc3)nc(N3CCC4(CC4N)C3)c12 (centres unmarked) [4.195] | ≤ 0.5 µg/mL | 1 µg/mL (≈ 2.14 µM) | – | – | –
CNc1cc(F)cc2c1[nH]c1nc(Oc3cnc(C)nc3)nc(NCCCN)c12 [4.108] | – | – | 4 µg/mL (≈ 10.1 µM) | >16 µg/mL | –
CNc1cc(F)cc2c1[nH]c1nc(Oc3cnc(CCO)nc3)nc(N3CC4C[C@@H](N)C4C3)c12 (some centres unmarked) [4.415] | ≤ 0.5 µg/mL | 1 µg/mL (≈ 2.15 µM) | – | – | –
CNc1cc(F)cc2c1[nH]c1nc(Oc3cnc(-c4nccn4C)nc3)nc(N3C[C@H](N)C4(CC4)C3)c12 [4.399] | ≤ 0.5 µg/mL | 2 µg/mL (≈ 4 µM) | – | – | –
CNc1cc(F)c(C)c2c1[nH]c1nc(Oc3cnc(C)nc3)nc(N3CC4(CCC4N)C3)c12 (centres unmarked) [6.20] | – | – | – | – | MIC Sa (S. aureus ATCC 13709): 4 µg/mL (≈ 8.92 µM); MIC Ec (E. coli ATCC 25922): >16 µg/mL

SMILES | MIC (S. aureus ATCC 13709; [1]) | MIC (E. coli ATCC 25922; [1]) | MIC Sa (S. aureus ATCC 13709; [2]) | MIC Ec (E. coli ATCC 25922; [3]) | other results
CNc1cc(F)cc2c1[nH]c1nc(Oc3cnc(C)nc3)nc(N3CC4C(N)CC(C)(C)C4C3)c12 (centres unmarked) [4.097] | – | – | ≤0.5 µg/mL | 2 µg/mL (≈ 4.2 µM) | –
CNc1cc(F)cc2c1[nH]c1nc(Oc3ccc(C#N)nc3)nc(N3CC4(CCC4N)C3)c12 (centres unmarked) [4.333] | – | – | ≤0.5 µg/mL | ≤0.5 µg/mL | –
CNc1cc(F)c(F)c2c1[nH]c1nc(Oc3cnc(C)nc3)nc(N3CC(N)C4(CC4)C3)c12 (centres unmarked) [5.05] | – | – | ≤0.5 µg/mL | ≤0.5 µg/mL | –
CNc1cc(F)cc2c1[nH]c1nc(Oc3cnc(CF)nc3)nc(N3C[C@H]4CC3C[C@H]4N)c12 [4.443] | ≤ 0.5 µg/mL | ≤ 0.5 µg/mL | – | – | –
CNc1cc(F)cc2c1[nH]c1nc(Oc3cnc4[nH]cnc4c3)nc(N3CC4CCNC4C3)c12 (centres unmarked) [4.312] | 16 µg/mL (≈ 34.8 µM) | > 16 µg/mL | – | – | –
CNc1cc(F)cc2c1[nH]c1nc(Oc3cnc(NCC4CCCO4)nc3)nc(N3C[C@H](N)C4(CC4)C3)c12 (some centres unmarked) [4.406] | ≤ 0.5 µg/mL | 1 µg/mL (≈ 1.92 µM) | – | – | –
CNc1cccc2c1[nH]c1nc(Oc3cncc(F)c3)nc(N3CC4C(N)C4C3)c12 (centres unmarked) [3.33] | ≤ 0.5 µg/mL | 1 µg/mL (≈ 2.47 µM) | – | – | –
COc1cccc2c1[nH]c1nc(Sc3cnc4ccc[n+]([O-])c4c3)nc(N3CC[C@@H](N)C3)c12 [1.78] | ≤ 0.5 µg/mL | 64 µg/mL (≈ 139 µM) | – | – | –
CNc1cc(F)cc2c1[nH]c1nc(Oc3cnc(C(C)(C)C)nc3)nc(N3CC[C@@H](N)C3)c12 [4.319] | ≤ 0.5 µg/mL | ≤ 0.5 µg/mL | – | – | –
CNc1cc(F)cc2c1[nH]c1nc(Oc3cnc(C)nc3)nc(N3CC4CC3CC4N)c12 (centres unmarked) [4.129] | – | – | ≤0.5 µg/mL | ≤0.5 µg/mL | –
CNc1cccc2c1[nH]c1nc(Oc3cncnc3)nc(N3CC(N)C(O)C3)c12 (centres unmarked) [3.8] | 16 µg/mL (≈ 40.8 µM) | > 64 µg/mL | – | – | –
CNc1cc(F)cc2c1[nH]c1nc(Oc3cnc(CC(=O)NOC)nc3)nc(N3CC(N)C4(CC4)C3)c12 (centres unmarked) [4.371] | – | – | 1 µg/mL (≈ 1.97 µM) | 16 µg/mL (≈ 31.5 µM) | –
CNc1cc(F)cc2c1[nH]c1nc(Oc3cnc(C#N)c(C)c3)nc(N3CC4(CC[C@H]4N)C3)c12 [4.326] | ≤ 0.5 µg/mL | ≤ 0.5 µg/mL | – | – | –
CNc1cc(F)cc2c1[nH]c1nc(Oc3cnc(C)nc3)nc(N[C@@H]3CC4CC3CN4)c12 (some centres unmarked) [4.155] | 2 µg/mL (≈ 4.6 µM) | > 16 µg/mL | – | – | –
CNc1cc(F)c(F)c2c1[nH]c1nc(Oc3cnc(C)nc3)nc(N3CCC4(CC4N)C3)c12 (centres unmarked) [5.02] | – | – | ≤0.5 µg/mL | ≤0.5 µg/mL | –
